What was measured:
Experiment in all cases: NCI 60-cell line growth inhibition assay
Type in all cases: cell-based
HS 578T = conditions: Homo sapiens; HS 578T (Breast)
MCF7 = conditions: Homo sapiens; MCF7 (Breast)
MDA-MB-231/ATCC = conditions: Homo sapiens; MDA-MB-231/ATCC (Breast)
MDA-MB-435 = conditions: Homo sapiens; MDA-MB-435 (Breast)
MDA-N = conditions: Homo sapiens; MDA-N (Breast)
SF-295 = conditions: Homo sapiens; SF-295 (CNS)
SNB-75 = conditions: Homo sapiens; SNB-75 (CNS)
U251 = conditions: Homo sapiens, U-251; U251 (CNS)
COLO 205 = conditions: Homo sapiens; COLO 205 (Colon)
HCT-15 = conditions: Homo sapiens; HCT-15 (Colon)
HT29 = conditions: Homo sapiens, HT-29; HT29 (Colon)
KM12 = conditions: Homo sapiens; KM12 (Colon)
SW-620 = conditions: Homo sapiens; SW-620 (Colon)
HL-60(TB) = conditions: Homo sapiens; HL-60(TB) (Leukemia)
K-562 = conditions: Homo sapiens, K562; K-562 (Leukemia)
MOLT-4 = conditions: Homo sapiens; MOLT-4 (Leukemia)
RPMI-8226 = conditions: Homo sapiens; RPMI-8226 (Leukemia)
SR = conditions: Homo sapiens; SR (Leukemia)
LOX IMVI = conditions: Homo sapiens; LOX IMVI (Melanoma)
M14 = conditions: Homo sapiens; M14 (Melanoma)
SK-MEL-28 = conditions: Homo sapiens; SK-MEL-28 (Melanoma)
SK-MEL-5 = conditions: Homo sapiens; SK-MEL-5 (Melanoma)
A549/ATCC = conditions: Homo sapiens; A549/ATCC (Non-Small Cell Lung)
EKVX = conditions: Homo sapiens; EKVX (Non-Small Cell Lung)
HOP-62 = conditions: Homo sapiens; HOP-62 (Non-Small Cell Lung)
HOP-92 = conditions: Homo sapiens; HOP-92 (Non-Small Cell Lung)
NCI-H226 = conditions: Homo sapiens; NCI-H226 (Non-Small Cell Lung)
NCI-H322M = conditions: Homo sapiens; NCI-H322M (Non-Small Cell Lung)
NCI-H460 = conditions: Homo sapiens; NCI-H460 (Non-Small Cell Lung)
NCI-H522 = conditions: Homo sapiens; NCI-H522 (Non-Small Cell Lung)
IGROV1 = conditions: Homo sapiens, IGROV-1; IGROV1 (Ovarian)
OVCAR-4 = conditions: Homo sapiens; OVCAR-4 (Ovarian)
OVCAR-5 = conditions: Homo sapiens; OVCAR-5 (Ovarian)
OVCAR-8 = conditions: Homo sapiens; OVCAR-8 (Ovarian)
SK-OV-3 = conditions: Homo sapiens; SK-OV-3 (Ovarian)
CAKI-1 = conditions: Homo sapiens; CAKI-1 (Renal)
RXF 393 = conditions: Homo sapiens; RXF 393 (Renal)
SN12C = conditions: Homo sapiens; SN12C (Renal)
TK-10 = conditions: Homo sapiens; TK-10 (Renal)
UO-31 = conditions: Homo sapiens; UO-31 (Renal)

SMILES: Cn1cnc2c(NCc3ccccc3)nc(NCCO)nc21 [Olomoucine, reference compound]
- GI50 (HS 578T): 63 µM
- GI50 (MCF7): 50 µM
- GI50 (MDA-MB-231/ATCC): 100 µM
- GI50 (MDA-MB-435): 63 µM
- GI50 (MDA-N): 79 µM
- GI50 (SF-295): 79 µM
- GI50 (SNB-75): 25 µM
- GI50 (U251): 50 µM
- GI50 (COLO 205): 32 µM
- GI50 (HCT-15): 40 µM
- GI50 (HT29): 63 µM
- GI50 (KM12): 40 µM
- GI50 (SW-620): 40 µM
- GI50 (HL-60(TB)): 40 µM
- GI50 (K-562): 100 µM
- GI50 (MOLT-4): 63 µM
- GI50 (RPMI-8226): 50 µM
- GI50 (SR): 25 µM
- GI50 (LOX IMVI): 32 µM
- GI50 (M14): 100 µM
- GI50 (SK-MEL-28): 50 µM
- GI50 (SK-MEL-5): 40 µM
- GI50 (A549/ATCC): 50 µM
- GI50 (EKVX): 100 µM
- GI50 (HOP-62): 32 µM
- GI50 (HOP-92): 50 µM
- GI50 (NCI-H226): 50 µM
- GI50 (NCI-H322M): 63 µM
- GI50 (NCI-H460): 63 µM
- GI50 (NCI-H522): 40 µM
- GI50 (IGROV1): 40 µM
- GI50 (OVCAR-4): 100 µM
- GI50 (OVCAR-5): 40 µM
- GI50 (OVCAR-8): 63 µM
- GI50 (SK-OV-3): 100 µM
- GI50 (CAKI-1): 32 µM
- GI50 (RXF 393): 20 µM
- GI50 (SN12C): 100 µM
- GI50 (TK-10): 63 µM
- GI50 (UO-31): 32 µM
